Results published in patent US6906205B2, “Spiro and dispiro 1,2,4-trioxolane antimalarials” (Medicines for Malaria Venture MMV, priority 2002, dated 2005).
In brackets after ≈: the same amount, converted by molar mass.

How the values were obtained:
[1] = tested on: ANKA strain of P. berghei; experiment: single dose STI in vivo screen in infected mice; set-up: species or system Plasmodium berghei; details: for Activity (%) po / Activity (%) sc / Activity (%) SSVpo: percent reduction in parasitemia day 3 post-infection, mice; for Activity (%) po / Survival (days) po: single 10 mg/kg po in 3% ethanol and 7% Tween 80; for Activity (%) sc / Survival (days) sc: single 10 mg/kg sc in 3% ethanol and 7% Tween 80; for Activity (%) SSVpo: single po dose in standard suspending vehicle (SSV); for Survival (days) po / Survival (days) sc / Survival (days) SSVpo: untreated control 5.6 ± 0.3; for Survival (days) SSVpo: single po dose in SSV
Outline: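 Groups of 3-5 Moro SPF or NMRI mice infected with the ANKA strain of P. berghei received a single dose of trioxolane on day one post-infection. The compound was given in 3% ethanol and 7% Tween 80 or in SSV (0.5% w/v CMC, 0.5% v/v benzyl alcohol, 0.4% v/v Tween 80, 0.9% w/v sodium chloride in water). Antimalarial activity was scored as percent reduction in parasitemia on day three and as survival time versus untreated controls. Survival to day 30 counted as cure.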

[2] = tested on: P. falciparum NF54 strain (sensitive to standard antimalarials); experiment: semiautomated microdilution assay, [3H]-hypoxanthine incorporation, NF54 strain; type: cell-based, Plasmodium falciparum; details: NF54 strain, 72 h incubation
Outline: (§1)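 IC50 values come from logit regression of semiautomated microdilution data obtained on intraerythrocytic parasites drawn from asynchronous cultures.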

[3] = tested on: P. falciparum K1 strain (Thailand resistant to chloroquine); experiment: semiautomated microdilution assay, [3H]-hypoxanthine incorporation, K1 strain; type: cell-based, Plasmodium falciparum; details: K1 strain, 72 h incubation
Outline: as §1

With `c1cnn(C[C@H]2CC[C@]3(CC2)OOC2(O3)C3CC4CC(C3)CC2C4)c1` (stereo partly drawn) [OZ211] as the molecule, how does the “Activity (%) po” value [1] read?
The value was 82%.

And the “Activity (%) sc” value [1]?
Its value is 99.90%.

And the “Activity (%) SSVpo” value [1]?
Its value is 78%.

What about the “Survival (days) po” value [1] of the same molecule?
The value was 8.0 days.

What about the “Survival (days) sc” value [1] of the same molecule?
The value was 8.7 days.

What about the “Survival (days) SSVpo” value [1] of the same molecule?
Its value is 7.3 days.

What about the “IC50 (ng/ml) NF54” value [2] of the same molecule?
Its value is 1.2 ng/mL (≈ 3.48 nM).

And the “IC50 (ng/ml) K1” value [3]?
Its value is 1.0 ng/mL (≈ 2.9 nM).

With `O=C1c2ccccc2S(=O)(=O)N1C[C@H]1CC[C@]2(CC1)OOC1(O2)C2CC3CC(C2)CC1C3` (stereo partly drawn) [OZ212] as the molecule, how does the “Activity (%) po” value [1] read?
The value was 66%.

What about the “Activity (%) sc” value [1] of the same molecule?
Its value is 59%.

And the “Activity (%) SSVpo” value [1]?
The value was 25%.

And the “Survival (days) po” value [1]?
The value was 6.7 days.

And the “Survival (days) sc” value [1]?
Its value is 8.0 days.

And the “Survival (days) SSVpo” value [1]?
Its value is 6.7 days.

And the “IC50 (ng/ml) NF54” value [2]?
Its value is 2.9 ng/mL (≈ 6.31 nM).

And the “IC50 (ng/ml) K1” value [3]?
Its value is 2.7 ng/mL (≈ 5.88 nM).

What does the source list for `CONC(=O)C[C@H]1CC[C@]2(CC1)OOC1(O2)C2CC3CC(C2)CC1C3` (stereo partly drawn) [OZ213]?
Activity (%) po [1]: 83%; Activity (%) sc [1]: 85%; Activity (%) SSVpo [1]: 74%; Survival (days) po [1]: 8.0/8.0/8.0 days; Survival (days) sc [1]: 8.0/8.0/8.0 days; Survival (days) SSVpo [1]: 8.0/8.0/8.0 days; IC50 (ng/ml) NF54 [2]: 2.8 ng/mL (≈ 7.97 nM); IC50 (ng/ml) K1 [3]: 2.3 ng/mL (≈ 6.54 nM)

For `O=C(O)c1ccc(C[C@H]2CC[C@]3(CC2)OOC2(O3)C3CC4CC(C3)CC2C4)cc1` (stereo partly drawn) [OZ214], which “Activity (%) po” value [1] is on record?
The value was 44%.

And the “Activity (%) sc” value [1]?
Its value is 65%.

And the “Activity (%) SSVpo” value [1]?
Its value is 54%.

And the “Survival (days) po” value [1]?
The value was 6.3 days.

What about the “Survival (days) sc” value [1] of the same molecule?
The value was 7.7 days.

What about the “Survival (days) SSVpo” value [1] of the same molecule?
Its value is 7.3 days.

And the “IC50 (ng/ml) NF54” value [2]?
Its value is >10/>10 ng/ml.

And the “IC50 (ng/ml) K1” value [3]?
The value was >10/>10 ng/ml.

Which results are given for `O=C1c2ccccc2C(=O)N1CC[C@H]1CC[C@]2(CC1)OOC1(O2)C2CC3CC(C2)CC1C3` (stereo partly drawn) [OZ215]?
Activity (%) po [1]: 96%; Activity (%) sc [1]: 39%; Activity (%) SSVpo [1]: 25%; Survival (days) po [1]: 9.7 days; Survival (days) sc [1]: 7.0 days; Survival (days) SSVpo [1]: 6.3 days; IC50 (ng/ml) NF54 [2]: 7.3 ng/mL (≈ 16.7 nM); IC50 (ng/ml) K1 [3]: 6.4 ng/mL (≈ 14.6 nM)

Which “Activity (%) po” value [1] does the source give for `c1cc(CN2CCC3(CC2)OOC2(O3)C3CC4CC(C3)CC2C4)ccn1` (stereo not drawn) [OZ216] here?
The value was 62%.

What about the “Activity (%) sc” value [1] of the same molecule?
The value was 99.02%.

What about the “Activity (%) SSVpo” value [1] of the same molecule?
Its value is 69%.

And the “Survival (days) po” value [1]?
The value was 6.3 days.

And the “Survival (days) sc” value [1]?
Its value is 11.0 days.

What about the “Survival (days) SSVpo” value [1] of the same molecule?
Its value is 7.7 days.

What about the “IC50 (ng/ml) NF54” value [2] of the same molecule?
Its value is 0.67 ng/mL (≈ 1.88 nM).

And the “IC50 (ng/ml) K1” value [3]?
Its value is 0.40 ng/mL (≈ 1.12 nM).

For `O=C(C[C@H]1CC[C@]2(CC1)OOC1(O2)C2CC3CC(C2)CC1C3)Nc1nccs1` (stereo partly drawn) [OZ217], which “Activity (%) po” value [1] is on record?
Its value is 67%.

And the “Activity (%) sc” value [1]?
The value was 98%.

And the “Activity (%) SSVpo” value [1]?
The value was 8%.

And the “Survival (days) po” value [1]?
Its value is 7.0 days.

What about the “Survival (days) sc” value [1] of the same molecule?
Its value is 8.0 days.

What about the “Survival (days) SSVpo” value [1] of the same molecule?
The value was 6.0 days.

What about the “IC50 (ng/ml) NF54” value [2] of the same molecule?
Its value is 2.0/2.0 ng/ml.

What about the “IC50 (ng/ml) K1” value [3] of the same molecule?
Its value is 2.0/2.0 ng/ml.

What does the source list for `O=C(C[C@H]1CC[C@]2(CC1)OOC1(O2)C2CC3CC(C2)CC1C3)N1CCCCC1` (stereo partly drawn) [OZ218]?
Activity (%) po [1]: 98%; Activity (%) sc [1]: 99.68%; Activity (%) SSVpo [1]: 99.30%; Survival (days) po [1]: 10.0 days; Survival (days) sc [1]: 9.0 days; Survival (days) SSVpo [1]: 14.3 days; IC50 (ng/ml) NF54 [2]: 3.0 ng/mL (≈ 7.7 nM); IC50 (ng/ml) K1 [3]: 2.0 ng/mL (≈ 5.13 nM)

Which “Activity (%) po” value [1] does the source give for `c1ccc(CN2CCC3(CC2)OOC2(O3)C3CC4CC(C3)CC2C4)cc1` (stereo not drawn) [OZ220] here?
The value was 40%.

And the “Activity (%) sc” value [1]?
Its value is 99.95%.

And the “Activity (%) SSVpo” value [1]?
Its value is 0%.

And the “Survival (days) po” value [1]?
The value was 6.0 days.

What about the “Survival (days) sc” value [1] of the same molecule?
The value was 10.0 days.

And the “Survival (days) SSVpo” value [1]?
Its value is 5.3 days.

And the “IC50 (ng/ml) NF54” value [2]?
Its value is 4.9 ng/mL (≈ 13.8 nM).

What about the “IC50 (ng/ml) K1” value [3] of the same molecule?
The value was 6.9 ng/mL (≈ 19.4 nM).

With `NC(=O)N[C@H]1CC[C@]2(CC1)OOC1(O2)C2CC3CC(C2)CC1C3` (stereo partly drawn) [OZ221] as the molecule, how does the “Activity (%) po” value [1] read?
Its value is 80%.

What about the “Activity (%) sc” value [1] of the same molecule?
The value was 97%.

What about the “Activity (%) SSVpo” value [1] of the same molecule?
Its value is 87%.

And the “Survival (days) po” value [1]?
The value was 6.3 days.

What about the “Survival (days) sc” value [1] of the same molecule?
Its value is 8.0 days.

What about the “Survival (days) SSVpo” value [1] of the same molecule?
The value was 7.0 days.

And the “IC50 (ng/ml) NF54” value [2]?
Its value is >10/>10 ng/ml.

What about the “IC50 (ng/ml) K1” value [3] of the same molecule?
Its value is >10/>10 ng/ml.

What does the source list for `CC(C)(C)NC(=O)N[C@H]1CC[C@]2(CC1)OOC1(O2)C2CC3CC(C2)CC1C3` (stereo partly drawn) [OZ222]?
Activity (%) po [1]: 87%; Activity (%) sc [1]: 99.76%; Activity (%) SSVpo [1]: 75%; Survival (days) po [1]: 7.7 days; Survival (days) sc [1]: 10.0 days; Survival (days) SSVpo [1]: 7.0 days; IC50 (ng/ml) NF54 [2]: 6.3 ng/mL (≈ 16.6 nM); IC50 (ng/ml) K1 [3]: 3.9 ng/mL (≈ 10.3 nM)

With `COC(=O)c1cncn1C[C@H]1CC[C@]2(CC1)OOC1(O2)C2CC3CC(C2)CC1C3` (stereo partly drawn) [OZ223] as the molecule, how does the “Activity (%) po” value [1] read?
Its value is 89%.

What about the “Activity (%) sc” value [1] of the same molecule?
Its value is 99.57%.

And the “Activity (%) SSVpo” value [1]?
Its value is 79%.

What about the “Survival (days) po” value [1] of the same molecule?
The value was 7.3 days.

What about the “Survival (days) sc” value [1] of the same molecule?
The value was 12.0 days.

And the “Survival (days) SSVpo” value [1]?
Its value is 6.3 days.

What about the “IC50 (ng/ml) NF54” value [2] of the same molecule?
The value was over 10 ng/mL.

And the “IC50 (ng/ml) K1” value [3]?
Its value is 4.0 ng/mL (≈ 9.94 nM).

What does the source list for `COC(=O)c1cn(C[C@H]2CC[C@]3(CC2)OOC2(O3)C3CC4CC(C3)CC2C4)cn1` (stereo partly drawn) [OZ224]?
Activity (%) po [1]: 0%; Activity (%) sc [1]: 20%; Activity (%) SSVpo [1]: 5%; Survival (days) po [1]: 6.0 days; Survival (days) sc [1]: 5.7 days; Survival (days) SSVpo [1]: 5.7 days; IC50 (ng/ml) NF54 [2]: 3.0 ng/mL (≈ 7.45 nM); IC50 (ng/ml) K1 [3]: 2.0 ng/mL (≈ 4.97 nM)

How did the “Activity (%) po” value [1] turn out when `O=C(O)c1cn(C[C@H]2CC[C@]3(CC2)OOC2(O3)C3CC4CC(C3)CC2C4)cn1` (stereo partly drawn) [OZ225] was run?
The value was 0%.

What about the “Activity (%) sc” value [1] of the same molecule?
Its value is 17%.

And the “Activity (%) SSVpo” value [1]?
The value was 0%.

What about the “Survival (days) po” value [1] of the same molecule?
Its value is 5.7 days.

What about the “Survival (days) sc” value [1] of the same molecule?
Its value is 6.3 days.

And the “Survival (days) SSVpo” value [1]?
The value was 5.7 days.

What about the “IC50 (ng/ml) NF54” value [2] of the same molecule?
The value was over 10 ng/mL.

And the “IC50 (ng/ml) K1” value [3]?
Its value is 7.3 ng/mL (≈ 18.8 nM).

What does the source list for `[N-]=[N+]=NCC[C@H]1CC[C@]2(CC1)OOC1(O2)C2CC3CC(C2)CC1C3` (stereo partly drawn) [OZ228]?
Activity (%) po [1]: 99.94%; Activity (%) sc [1]: 99.94%; Activity (%) SSVpo [1]: 28%; Survival (days) po [1]: 10.3 days; Survival (days) sc [1]: 14.0 days; Survival (days) SSVpo [1]: 6.0 days; IC50 (ng/ml) NF54 [2]: 2.1 ng/mL (≈ 6.3 nM); IC50 (ng/ml) K1 [3]: 2.0 ng/mL (≈ 6 nM)
